Values quoted from earlier work as cited in patent US20080248136A1, “ACUTE AND CHRONIC HEARTBURN COMPOSITION AND METHOD” (IOMEDIX DEVELOPMENT INTERNATIONAL SRL, priority 2006, published 2008).

Tests used:
[1] = in vivo
[2] = mice
[3] = system: mitogen-activated protein kinase signaling; conditions: signaling stimulated by H. Pylori

For `O=C([O-])[O-].[Ca+2]` [calcium carbonate], the “esophageal pH” value [1] is given as “significantly increased” and the “gastric pH versus placebo” value [1] is given as “remained at or below placebo levels”.
In the case of `C=C(C)[C@H]1CC=C(C)CC1` [limonene], the “participants achieving complete relief of symptoms” value (after 2 days of administration) is listed as 20%, the “severity of gastric and esophageal reflux disorder symptoms, as evaluated by subjects” value (daily or every other day administration, after 14 days) is listed as “near complete relief of the symptoms” and the “lasting alleviation of symptoms of gastric and esophageal reflux disorders” value (in certain cases) is listed as “alleviated permanently”. For the same compound, the antinociceptive activity [2] was “has antinociceptive activity”.
In the case of `[Mg+2].[OH-].[OH-]` [magnesium hydroxide], the “esophageal pH” value [1] is given as “significantly increased” and the “gastric pH versus placebo” value [1] is given as “increased gastric pH above placebo levels”.
For `C=C(C)[C@@H]1CC=C(C(=O)O)CC1` [perillic acid], the “effect on mitogen-activated protein kinase signaling” value [3] is listed as “inhibits”.
